Source: patent US20040229791A1, “Compositions and methods of modulating TGF-beta activity by fatty acids” (priority 2002, published 2004)

Columns and labels:
[1] = Plasma clearance of 125I-TGF-β1 with and without α2M* and arachidonic acid; type: in vivo, mice; details: control experiments, no α2M*
Procedure: TGF ? β1-α2M* and TGF- ? 2- ? 2M* complexes are cleared from plasma by the ? liver (30). To test the possibility that fatty acids may be able to affect the plasma clearance of TGF ? β and α2M* complexes, ^125I-TGF ? β1 or ^125I-TGF- ? 2 were prei presence or absence of 10 μM arachidonic acid at room temperature for 30 min, and then injected into mice via tail vein according to published procedures (19). At several time intervals (10 sec, 1, 2, 3, 5, 10, 15, 20, 30 and 60 min) about 50 μl of blood was collected and counted by a γ-counter. […] The t 1+α2M* or ^125I-TGF- ? 2+α2M* were approximately 4 min. These twith published values of free ^125I-TGF- ? 1,2 and ^125I-TGF- ? 1,2-α2M* complexes, respe (19). In the presence of arachidonic acid, the t1/2s of ^125I-TGF ? β1+α2M* and ^125I-TGF α2M* were decreased to approximately 1-2 min; these are essentially identical to the t1/2s of free ^125I-TGF- ? 1 and ^125I-TGF ? β2 (FIGS. 7A and B). In control experiments, arachidonic acid did no affect the plasma clearance of free ^125I-TGF ? β1 and ^125I-TGF- ? 2.
Plasma clearance of ^125I-TGF ? β in the presence and absence of ? 2M*-^125I-TGF- ? 1 nM) or ^125I-TGF- ? 2 (1 nM) was pre-incubated with ? […] The radioactivity in the blood sample obtained at 10 s was taken as 100%.

[2] = molecular target: T1, native α2M (Homo sapiens, UniProt P01023); assay: Gel filtration of 3H-arachidonic acid with native α2M; type: binding; details: 100 μM 3H-arachidonic acid
T1 construct: was purified from pooled citrate-treate human plasma; from tissue; host or cells: pooled citrate-treated human plasma
T1 sequence (P01023 24-1474): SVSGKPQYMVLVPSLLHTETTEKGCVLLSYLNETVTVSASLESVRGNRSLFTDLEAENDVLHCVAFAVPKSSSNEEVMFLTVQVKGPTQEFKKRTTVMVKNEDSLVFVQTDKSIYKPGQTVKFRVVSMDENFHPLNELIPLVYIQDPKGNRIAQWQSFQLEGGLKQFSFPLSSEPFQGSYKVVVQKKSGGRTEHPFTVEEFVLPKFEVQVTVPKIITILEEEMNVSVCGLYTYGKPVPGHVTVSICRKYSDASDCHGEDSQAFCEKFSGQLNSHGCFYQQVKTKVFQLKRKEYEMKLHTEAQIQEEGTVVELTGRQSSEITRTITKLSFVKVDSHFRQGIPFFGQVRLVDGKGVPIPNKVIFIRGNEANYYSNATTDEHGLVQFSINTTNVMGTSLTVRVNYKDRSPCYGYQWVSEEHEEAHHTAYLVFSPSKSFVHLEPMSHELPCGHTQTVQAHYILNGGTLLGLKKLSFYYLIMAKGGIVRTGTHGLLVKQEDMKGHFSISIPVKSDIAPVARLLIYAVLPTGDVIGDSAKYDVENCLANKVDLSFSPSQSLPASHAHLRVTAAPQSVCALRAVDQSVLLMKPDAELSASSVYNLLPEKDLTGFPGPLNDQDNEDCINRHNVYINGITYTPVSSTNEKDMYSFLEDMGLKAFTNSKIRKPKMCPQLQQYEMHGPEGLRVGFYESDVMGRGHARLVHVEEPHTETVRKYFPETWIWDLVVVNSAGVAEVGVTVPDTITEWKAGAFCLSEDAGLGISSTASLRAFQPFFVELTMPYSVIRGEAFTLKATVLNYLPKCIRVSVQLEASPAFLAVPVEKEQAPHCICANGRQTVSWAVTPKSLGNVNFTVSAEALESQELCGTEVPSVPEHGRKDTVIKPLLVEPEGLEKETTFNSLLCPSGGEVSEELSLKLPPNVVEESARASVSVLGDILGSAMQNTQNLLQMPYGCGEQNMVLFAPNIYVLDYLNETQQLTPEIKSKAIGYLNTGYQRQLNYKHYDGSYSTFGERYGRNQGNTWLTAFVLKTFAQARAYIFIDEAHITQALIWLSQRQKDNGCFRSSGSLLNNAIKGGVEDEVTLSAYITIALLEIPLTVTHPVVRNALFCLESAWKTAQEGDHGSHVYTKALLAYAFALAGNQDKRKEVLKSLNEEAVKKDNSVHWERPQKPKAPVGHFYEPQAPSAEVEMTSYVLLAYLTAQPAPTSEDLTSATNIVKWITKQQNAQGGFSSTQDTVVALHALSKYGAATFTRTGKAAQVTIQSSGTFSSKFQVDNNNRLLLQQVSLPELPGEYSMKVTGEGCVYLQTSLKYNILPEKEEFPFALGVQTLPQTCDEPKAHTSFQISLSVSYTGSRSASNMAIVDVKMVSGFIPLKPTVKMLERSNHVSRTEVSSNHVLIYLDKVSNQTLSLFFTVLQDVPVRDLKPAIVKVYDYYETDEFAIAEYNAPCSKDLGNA
Procedure: The interaction of ^3H-arachidonic acid and α2M* was determined using gel filtration. ^3H-arachidonic acid was incubated with native ? 2M or ? 2M*, which was activated by methylamine. After incubation at room temperature for 30 min, the reaction mixture was subjected to gel filtration chromatography on Sephacryl® S-300 HR. The ^3H-arachidonic acid radioactivity and concentrations of. α2M* or native ? 2M in the eluents were determined by scintillation counting and 5% SDS-PAGE followed by Coomassie blue staining, respectively. […] The small peak, which appeared in the flow-through fractions, contained the ^3H-arachidonic acid- ? 2M* complex and free ? 2M*, which was identified by Coomassie blue staining (FIG. 5, inset). The subsequent large peak, which appeared in the column bed volume fractions, was identified as free ^3H-arachidonic acid.
Gel Filtration of ^3H-arachidonic acid-α2M* Complexes—The reaction mixture contained 100 μM ^3H-arachidonic acid with or without 10 μg of ? 2M*, which was activated by methylamine and plasmin as described previously (12,22), or native ? […] The column was then eluted with the same phosphate buffer and the fractional volume was ˜1 ml, 20 μl of which was counted with a scintillation counter and an another 20 μl of which was analyzed by SDS-PAGE followed by Coomassie blue staining (to locate fractions containing. α2M* or native ? 2M).

## CCCCC/C=C\C/C=C\C/C=C\C/C=C\CCCC(=O)O [arachidonic acid]
[1]
  effect on plasma clearance of free 125I-TGF-β1: did no affect
[2]
  complex formation with native α2M: no complex formation
